In PubChem BioAssay AID1745844 (Carcinogenic Potency Database (CPDB), 2022):
The source made the active and inactive calls. No rule for the calls is given here.

Test system: rodent lifetime carcinogenesis bioassay, tumor incidence TD50
Assay: chronic cancer bioassays in animals – CPDB, compiled studies (AID 1745844)
Conditions: rat, in drinking water; for TD50: strain Fischer 344, study length 97 weeks

COc1cc(-c2ccc(N=Nc3c(S(=O)(=O)O)cc4cc(S(=O)(=O)O)cc(N)c4c3O)c(OC)c2)ccc1N=Nc1c(S(=O)(=O)O)cc2cc(S(=O)(=O)O)cc(N)c2c1O
TD50 (females, site: Zymbal's gland, lesion: adenoma + carcinoma, dosed 96 weeks): 104 mg/kg/day
TD50 (females, site: Zymbal's gland, lesion: adenoma, dosed 96 weeks): 321 mg/kg/day
TD50 (females, site: Zymbal's gland, lesion: carcinoma, dosed 96 weeks): 150 mg/kg/day
TD50 (females, site: any site (literature study), lesion: several types, types named in the paper, dosed 96 weeks): 20.4 mg/kg/day
TD50 (females, site: clitoral gland, lesion: adenoma + adenoma, bilateral + carcinoma + carcinoma, bilateral, dosed 96 weeks): 46.2 mg/kg/day
TD50 (females, site: clitoral gland, lesion: adenoma + adenoma, bilateral, dosed 96 weeks): 90.1 mg/kg/day
TD50 (females, site: clitoral gland, lesion: carcinoma + carcinoma, bilateral, dosed 96 weeks): 107 mg/kg/day
TD50 (females, site: colon, ascending + clitoral gland + colon + colon, descending + duodenum + jejunum + liver + multiple organs + palate + skin + tongue + uterus, lesion: adenomatous polyp + adenoma + adenoma, bilateral + carcinoma + carcinoma, bilateral + mucinous cystadenocarcinoma + adenocarcinoma + h, dosed 96 weeks): 21.3 mg/kg/day
TD50 (females, site: colon, ascending + colon + colon, descending, lesion: adenomatous polyp, dosed 96 weeks): 491 mg/kg/day
TD50 (females, site: duodenum + jejunum, lesion: mucinous cystadenocarcinoma + adenocarcinoma, dosed 96 weeks): 997 mg/kg/day
TD50 (females, site: jejunum, lesion: adenocarcinoma + mucinous cystadenocarcinoma, dosed 96 weeks): 1180 mg/kg/day
TD50 (females, site: liver, lesion: hepatocellular adenoma + hepatocellular carcinoma + neoplastic nodule, dosed 96 weeks): 394 mg/kg/day
TD50 (females, site: liver, lesion: hepatocellular carcinoma + neoplastic nodule, dosed 96 weeks): 394 mg/kg/day
TD50 (females, site: liver, lesion: neoplastic nodule, dosed 96 weeks): 429 mg/kg/day
TD50 (females, site: multiple organs, lesion: mononuclear-cell leukemia, dosed 96 weeks): 50 mg/kg/day
TD50 (females, site: palate + tongue, lesion: squamous-cell carcinoma + squamous-cell papilloma, dosed 96 weeks): 81 mg/kg/day
TD50 (females, site: palate + tongue, lesion: squamous-cell carcinoma, dosed 96 weeks): 208 mg/kg/day
TD50 (females, site: palate + tongue, lesion: squamous-cell papilloma, dosed 96 weeks): 132 mg/kg/day
TD50 (females, site: palate, lesion: squamous-cell carcinoma, dosed 96 weeks): 456 mg/kg/day
TD50 (females, site: palate, lesion: squamous-cell papilloma, dosed 96 weeks): 157 mg/kg/day
TD50 (females, site: skin, lesion: squamous-cell carcinoma + squamous-cell papilloma, dosed 96 weeks): 158 mg/kg/day
TD50 (females, site: skin, lesion: squamous-cell papilloma, dosed 96 weeks): 174 mg/kg/day
TD50 (females, site: tongue, lesion: squamous-cell carcinoma + squamous-cell papilloma, dosed 96 weeks): 238 mg/kg/day
TD50 (females, site: tongue, lesion: squamous-cell carcinoma, dosed 96 weeks): 384 mg/kg/day
TD50 (females, site: uterus, lesion: adenocarcinoma + adenoma, dosed 96 weeks): 493 mg/kg/day
TD50 (females, site: uterus, lesion: endometrial stromal polyp + endometrial stromal sarcoma, dosed 96 weeks): 122 mg/kg/day
TD50 (females, site: uterus, lesion: endometrial stromal polyp, dosed 96 weeks): 132 mg/kg/day
TD50 (males, site: Zymbal's gland, lesion: adenoma + carcinoma, dosed 97 weeks): 89.2 mg/kg/day
TD50 (males, site: Zymbal's gland, lesion: adenoma, dosed 97 weeks): 237 mg/kg/day
TD50 (males, site: Zymbal's gland, lesion: carcinoma, dosed 97 weeks): 132 mg/kg/day
TD50 (males, site: adrenal medulla, lesion: pheochromocytoma benign, bilateral + pheochromocytoma, benign, dosed 97 weeks): 39.8 mg/kg/day
TD50 (males, site: adrenal medulla, lesion: pheochromocytoma benign, bilateral + pheochromocytoma, complex + pheochromocytoma, malignant + pheochromocytoma, benign, dosed 97 weeks): 36.6 mg/kg/day
TD50 (males, site: any site (literature study), lesion: several types, types named in the paper, dosed 97 weeks): 12 mg/kg/day
TD50 (males, site: brain, medulla + cerebrum, lesion: astrocytoma, malignant, dosed 97 weeks): 600 mg/kg/day
TD50 (males, site: colon, ascending + colon + colon, descending + jejunum + liver + palate + pharynx + preputial gland + skin + tongue + Zymbal's gland, lesion: adenomatous polyp + adenocarcinoma + mucinous cystadenocarcinoma + hepatocellular carcinoma + neoplastic nodule + squamous-cell pa, dosed 97 weeks): 11.8 mg/kg/day
TD50 (males, site: colon, ascending + colon + colon, descending, lesion: adenomatous polyp + adenocarcinoma, dosed 97 weeks): 162 mg/kg/day
TD50 (males, site: colon, ascending + colon + colon, descending, lesion: adenomatous polyp, dosed 97 weeks): 310 mg/kg/day
TD50 (males, site: colon, lesion: adenocarcinoma, dosed 97 weeks): 355 mg/kg/day
TD50 (males, site: jejunum, lesion: adenocarcinoma + adenomatous polyp + mucinous cystadenocarcinoma, dosed 97 weeks): 1630 mg/kg/day
TD50 (males, site: liver, lesion: hepatocellular adenoma + hepatocellular carcinoma + neoplastic nodule, dosed 97 weeks): 55.2 mg/kg/day
TD50 (males, site: liver, lesion: hepatocellular carcinoma + neoplastic nodule, dosed 97 weeks): 55.2 mg/kg/day
TD50 (males, site: liver, lesion: hepatocellular carcinoma, dosed 97 weeks): 375 mg/kg/day
TD50 (males, site: liver, lesion: neoplastic nodule, dosed 97 weeks): 65.3 mg/kg/day
TD50 (males, site: multiple organs, lesion: mononuclear-cell leukemia, dosed 97 weeks): 23 mg/kg/day
TD50 (males, site: palate + pharynx + tongue, lesion: squamous-cell papilloma + squamous-cell carcinoma, dosed 97 weeks): 39.3 mg/kg/day
TD50 (males, site: palate + tongue, lesion: squamous-cell papilloma, dosed 97 weeks): 43.6 mg/kg/day
TD50 (males, site: palate, lesion: squamous-cell papilloma, dosed 97 weeks): 47 mg/kg/day
TD50 (males, site: pharynx + tongue, lesion: squamous-cell carcinoma, dosed 97 weeks): 361 mg/kg/day
TD50 (males, site: pharynx, lesion: squamous-cell carcinoma, dosed 97 weeks): 466 mg/kg/day
TD50 (males, site: preputial gland, lesion: adenoma + adenoma, bilateral + carcinoma + carcinoma, bilateral, dosed 97 weeks): 55.3 mg/kg/day
TD50 (males, site: preputial gland, lesion: adenoma + adenoma, bilateral, dosed 97 weeks): 77.1 mg/kg/day
TD50 (males, site: preputial gland, lesion: carcinoma + carcinoma, bilateral, dosed 97 weeks): 207 mg/kg/day
TD50 (males, site: skin, lesion: basal-cell adenoma + basal-cell carcinoma + sebaceous adenoma, dosed 97 weeks): 18.1 mg/kg/day
TD50 (males, site: skin, lesion: basal-cell adenoma + basal-cell carcinoma, dosed 97 weeks): 19.6 mg/kg/day
TD50 (males, site: skin, lesion: basal-cell adenoma, dosed 97 weeks): 21.6 mg/kg/day
TD50 (males, site: skin, lesion: basal-cell carcinoma, dosed 97 weeks): 101 mg/kg/day
TD50 (males, site: skin, lesion: keratoacanthoma, dosed 97 weeks): 152 mg/kg/day
TD50 (males, site: skin, lesion: sebaceous adenoma, dosed 97 weeks): 108 mg/kg/day
TD50 (males, site: skin, lesion: squamous-cell carcinoma + squamous-cell papilloma, dosed 97 weeks): 51 mg/kg/day
TD50 (males, site: skin, lesion: squamous-cell carcinoma, dosed 97 weeks): 89.7 mg/kg/day
TD50 (males, site: skin, lesion: squamous-cell papilloma, dosed 97 weeks): 92.8 mg/kg/day
TD50 (males, site: subcutaneous tissue, lesion: fibroma + sarcoma, dosed 97 weeks): 131 mg/kg/day
TD50 (males, site: subcutaneous tissue, lesion: fibroma, dosed 97 weeks): 150 mg/kg/day
TD50 (males, site: testis, lesion: interstitial-cell adenoma, bilateral + interstitial-cell adenoma, dosed 97 weeks): 12.9 mg/kg/day
TD50 (males, site: thyroid gland, lesion: c-cell adenoma + c-cell adenoma, bilateral, dosed 97 weeks): 143 mg/kg/day
TD50 (males, site: thyroid gland, lesion: c-cell adenoma + c-cell carcinoma, bilateral + c-cell carcinoma + c-cell adenoma, bilateral, dosed 97 weeks): 116 mg/kg/day
TD50 (males, site: thyroid gland, lesion: follicular-cell adenoma + follicular-cell carcinoma, dosed 97 weeks): 103 mg/kg/day
TD50 (males, site: thyroid gland, lesion: follicular-cell adenoma, dosed 97 weeks): 49.7 mg/kg/day
TD50 (males, site: thyroid gland, lesion: follicular-cell carcinoma, dosed 97 weeks): 331 mg/kg/day
TD50 (males, site: tongue, lesion: squamous-cell carcinoma + squamous-cell papilloma, dosed 97 weeks): 371 mg/kg/day

CCCCN(N=O)C(=N)N[N+](=O)[O-]
carcinogen call (strain Wistar, males, site: stomach, glandular, lesion: one or several types, types not named, dosed 52 weeks, study length 78 weeks): negative (inactive)
